Source: the NIST ThermoML archive (doi:10.1016/j.jct.2015.12.031)

Assay: mn = molality of the nth substance listed, in mol/kg
Conditions: 86.5 kPa, Liquid; for speed of sound: Frequency=3 MHz, Sing-around technique in a fixed-path interferometer; for mass density: Vibrating tube method

c1ccsc1 [thiophene] + CCCCCCCC
Conditions	mass density, 293.15 K [kg/m3]	mass density, 298.15 K [kg/m3]	mass density, 303.15 K [kg/m3]	speed of sound, 293.15 K [m/s]	speed of sound, 298.15 K [m/s]	speed of sound, 303.15 K [m/s]
m1 = 0.0158	703.296	699.223	695.177	1193.3	1172.4	1151.5
m1 = 0.0275	703.52	699.447	695.398	1193.3	1172.4	1151.5
m1 = 0.0517	703.981	699.907	695.856	1193.3	1172.4	1151.4
m1 = 0.0847	704.605	700.53	696.474	1193.2	1172.3	1151.4
m1 = 0.0952	704.805	700.728	696.672	1193.2	1172.3	1151.4
m1 = 0.1081	705.047	700.97	696.912	1193.2	1172.3	1151.4
m1 = 0.1182	705.236	701.159	697.101	1193.2	1172.3	1151.4
m1 = 0.1353	705.558	701.48	697.419	1193.2	1172.3	1151.3
m1 = 0.1494	705.822	701.743	697.682	1193.2	1172.3	1151.3
m1 = 0.1577	705.976	701.901	697.834	1193.2	1172.3	1151.3
m1 = 0.1729	706.262	702.182	698.118	1193.2	1172.3	1151.3
m1 = 0.1797	706.389	702.312	698.244	1193.1	1172.2	1151.3
m1 = 0.1932	706.641	702.561	698.492	1193.1	1172.2	1151.3
m1 = 0.2031	706.824	702.742	698.675	1193.1	1172.2	1151.3
m1 = 0.3004	708.627	704.545	700.46	1193	1172.1	1151.1
m1 = 0.4002	710.432	706.341	702.25	1192.9	1171.9	1151
m1 = 0.5026	712.275	708.178	704.068	1192.7	1171.8	1150.8
m1 = 0.5823	713.683	709.577	705.455	1192.6	1171.6	1150.7
